Consider 15 compounds from patent publication US9737544B2, “Compounds” (ASTEX THERAPEUTICS LIMITED, priority 2012, dated 2017).

The first experiment relates to Ba/F3-FGFR4-transfected cells. Kind of experiment: Ba/F3-FGFR4 cellular proliferation assay. It is filed as cell-based. The following applies: 24 h, read-out: BAF3-FGFR 4 pIC50 (converted).
With `COC(=O)CC(c1cc(OC)cc(OC)c1)c1ccc2ncc(-c3cnn(C)c3)nc2n1` (stereo not shown) [Compound 4], the IC50 is more than 10 µM.
The same measure, in the same setting: as for `COc1cc(OC)cc(C(=O)c2ccc3ncc(-c4cnn(C)c4)cc3n2)c1` [Compound 8], the figure is more than 10 µM.
Turning to `COc1cc(OC)cc(C(=O)c2ccc3ncc(N4CCOCC4)cc3n2)c1` [Compound 20], the IC50 was more than 10 µM.
Still for that read-out and setting: as for `CCOC(=O)CC(c1cc(OC)cc(OC)c1)c1ccc2ncc(N3CCOCC3)cc2n1` (stereo not shown) [Compound 21], the figure is more than 10 µM; as for `COc1cc(OC)cc(C(=O)c2cc3cc(-c4cnn(C)c4)cnc3cn2)c1` [Compound 23], more than 10 µM.
On the same count and under the same terms, as for `CCOC(=O)CC(c1cc(OC)cc(OC)c1)c1cc2cc(-c3cnn(C)c3)cnc2cn1` (stereo not shown) [Compound 24], the figure is more than 10 µM.
The same measure, in the same setting: as for `COc1cccc(C(=O)c2cc3cc(-c4cnn(C)c4)cnc3cn2)c1` [Compound 26], the figure is more than 10 µM.

A further experiment has as its system Ba/F3-KDR-transfected cells. Kind of experiment: Ba/F3-KDR (minus IL3 or plus IL3) cellular proliferation assay. The class given is cell-based. The following applies: 24 h, read-out: BAF3-KDR (MIN IL3) pIC50 (converted).
As to `COc1cc(OC)cc(C(O)c2ccc3ncc(-c4cnn(C)c4)nc3n2)c1` (stereo not shown) [Compound 2], the IC50 was more than 10 µM.
Same read-out and setting: as for `COc1cc(OC)cc(C(C)(O)c2ccc3ncc(-c4cnn(C)c4)nc3n2)c1` (stereo not shown) [Compound 3], the figure is more than 10 µM.
On the same count and under the same terms, as for `COC(=O)CC(c1cc(OC)cc(OC)c1)c1ccc2ncc(-c3cnn(C)c3)nc2n1` (stereo not shown) [Compound 4], the figure is more than 10 µM; as for `COc1cc(OC)cc(C(=O)c2ccc3ncc(-c4cnn(C)c4)cc3n2)c1` [Compound 8], more than 10 µM; as for `COc1cc(OC)cc(C(O)c2ccc3ncc(-c4cnn(C)c4)cc3n2)c1` (stereo not shown) [Compound 10], more than 10 µM.
Still for that read-out and setting: as for `COc1cc(OC)cc(C(OCCO)c2ccc3ncc(-c4cnn(C)c4)cc3n2)c1` (stereo not shown) [Compound 11], the figure is more than 10 µM.
`COc1cc(OC)cc(C(CCO)c2ccc3ncc(-c4cnn(C)c4)nc3n2)c1` (stereo not shown) [Compound 14]: the IC50 is more than 10 µM.
Regarding `COc1cc(OC)cc(C(Cc2nccn2S(=O)(=O)N(C)C)c2ccc3ncc(-c4cnn(C)c4)nc3n2)c1` (stereo not shown) [Compound 15], the IC50 is more than 10 µM.
On the same count and under the same terms, as for `COc1cccc(C(=O)c2ccc3ncc(-c4cnn(C)c4)cc3n2)c1` [Compound 16], the figure is more than 10 µM; as for `COc1cccc(C(O)c2ccc3ncc(-c4cnn(C)c4)cc3n2)c1` (stereo not shown) [Compound 17], more than 10 µM; as for `COc1cc(OC)cc(C(=O)c2ccc3ncc(N4CCOCC4)cc3n2)c1` [Compound 20], more than 10 µM.
For the compound `CCOC(=O)CC(c1cc(OC)cc(OC)c1)c1ccc2ncc(N3CCOCC3)cc2n1` (stereo not shown) [Compound 21], the IC50 is more than 10 µM.
Same read-out and setting: as for `COc1cc(OC)cc(C(=O)c2cc3cc(-c4cnn(C)c4)cnc3cn2)c1` [Compound 23], the figure is more than 10 µM.
Same read-out and setting: as for `CCOC(=O)CC(c1cc(OC)cc(OC)c1)c1cc2cc(-c3cnn(C)c3)cnc2cn1` (stereo not shown) [Compound 24], the figure is more than 10 µM.

For the next experiment, the system named is Ba/F3-FGFR1-transfected cells. Put plainly: Ba/F3-FGFR1 (minus IL3 or plus IL3) cellular proliferation assay. The class given is cell-based. The conditions noted are these: 24 h, read-out: BAF3-FGFR1 (MIN IL3) pIC50 (converted).
With `COc1cc(OC)cc(C(C)(O)c2ccc3ncc(-c4cnn(C)c4)nc3n2)c1` (stereo not shown) [Compound 3], the IC50 is more than 10 µM.
For the compound `COc1cccc(C(=O)c2ccc3ncc(-c4cnn(C)c4)cc3n2)c1` [Compound 16], the IC50 is more than 10 µM.
Same read-out and setting: as for `COc1cccc(C(O)c2ccc3ncc(-c4cnn(C)c4)cc3n2)c1` (stereo not shown) [Compound 17], the figure is more than 10 µM.
Take `COc1cc(OC)cc(C(=O)c2ccc3ncc(N4CCOCC4)cc3n2)c1` [Compound 20]: the IC50 was more than 10 µM.
Same read-out and setting: as for `CCOC(=O)CC(c1cc(OC)cc(OC)c1)c1ccc2ncc(N3CCOCC3)cc2n1` (stereo not shown) [Compound 21], the figure is more than 10 µM.
On the same count and under the same terms, as for `COc1cc(OC)cc(C(=O)c2cc3cc(-c4cnn(C)c4)cnc3cn2)c1` [Compound 23], the figure is more than 10 µM; as for `CCOC(=O)CC(c1cc(OC)cc(OC)c1)c1cc2cc(-c3cnn(C)c3)cnc2cn1` (stereo not shown) [Compound 24], more than 10 µM; as for `COc1cccc(C(=O)c2cc3cc(-c4cnn(C)c4)cnc3cn2)c1` [Compound 26], more than 10 µM.

Another experiment relates to Ba/F3-FGFR3-transfected cells. Put plainly: Ba/F3-FGFR3 (minus IL3 or plus IL3) cellular proliferation assay. The class given is cell-based. The following applies: 24 h, read-out: BAF3-FGFR3 (MIN IL3) pIC50 (converted).
For `CCOC(=O)CC(c1cc(OC)cc(OC)c1)c1cc2cc(-c3cnn(C)c3)cnc2cn1` (stereo not shown) [Compound 24], the IC50 is more than 10 µM.
Regarding `COc1cccc(C(=O)c2cc3cc(-c4cnn(C)c4)cnc3cn2)c1` [Compound 26], the IC50 was more than 10 µM.
